Laboratory results published in patent US20140249084A1, “PTH-CONTAINING THERAPEUTIC/PROPHYLACTIC AGENT FOR OSTEOPOROSIS, CHARACTERIZED IN THAT PTH IS ADMINISTERED ONCE A WEEK IN A UNIT DOSE OF 100 TO 200 UNITS” (ASAHI KASEI PHARMA CORPORATION, priority 2009, published 2014).

Key:
[1] = tested on: patients diagnosed with primary osteoporosis; experiment: Fractures at sites other than the vertebrae (roentgen films), Working Example 1; assay type: in vivo, human; details: fractures of sites other than the vertebrae
Method: Both the 5 and 100 unit groups were administered two tablets of a calcium agent (containing 500 mg of precipitated calcium carbonate [200 mg as calcium] per tablet) once a day.
The osteoporosis patients were classified as condition shown in Table 1 based on the bone fracture risk factors present, as in Non-patent Reference 13, and compared. High-risk patients were defined as having all three factors involving age, prevalent vertebral fractures, and bone density or bone atrophy; low-risk patients were defined as other than the above.

[2] = tested on: high-risk patients diagnosed with primary osteoporosis; experiment: Femur (neck, proximal) bone density by DXA, Working Example 2; assay type: in vivo, human; details: 200 units once a week; for Change in bone density (%): patients taking glucocorticoid
Method: For the bone density of the femur, only the left side of the proximal part of the femur, rotated 20°, was measured at the start and every 24 weeks thereafter using dual-energy x-ray absorptiometry (DXA).

[3] = in vivo

teriparatide acetate
No. with fractures (persons) ([1]; high-risk patients, 100 units once a week): 1 persons
No. with fractures (persons) ([1]; low-risk patients, 5 units once a week): 1 persons
No. with fractures (persons) ([1]; low-risk patients, 100 units once a week): 0 persons
Percentage change in bone density (%) ([2]; Neck of femur, 24 W, history of Alfacalcidol): 1.64%
Percentage change in bone density (%) ([2]; Neck of femur, 24 W, history of Calcitriol): −0.60%
Percentage change in bone density (%) ([2]; Neck of femur, 24 W, history of Calcium L-aspartate): 1.44%
Percentage change in bone density (%) ([2]; Neck of femur, 24 W, history of Calcium lactate): 0.30%
Percentage change in bone density (%) ([2]; Neck of femur, 24 W, history of Elcatonin): 1.62%
Percentage change in bone density (%) ([2]; Neck of femur, 24 W, history of Menatetrenone): 0.72%
Percentage change in bone density (%) ([2]; Neck of femur, 24 W, history of Raloxifene hydrochloride): 0.21%
Change in bone density (%) ([2]; Neck of femur, 24 W): 2.53%
Percentage change in bone density (%) ([2]; Neck of femur, 48 W, history of Alfacalcidol): 0.85%
Percentage change in bone density (%) ([2]; Neck of femur, 48 W, history of Calcitriol): −4.03%
Percentage change in bone density (%) ([2]; Neck of femur, 48 W, history of Calcium L-aspartate): 1.88%
Percentage change in bone density (%) ([2]; Neck of femur, 48 W, history of Calcium lactate): −4.35%
Percentage change in bone density (%) ([2]; Neck of femur, 48 W, history of Elcatonin): 0.72%
Percentage change in bone density (%) ([2]; Neck of femur, 48 W, history of Menatetrenone): −3.18%
Percentage change in bone density (%) ([2]; Neck of femur, 48 W, history of Raloxifene hydrochloride): 1.03%
Change in bone density (%) ([2]; Neck of femur, 48 W): 2.79%
Percentage change in bone density (%) ([2]; Neck of femur, 72 W, history of Alfacalcidol): 2.19%
Percentage change in bone density (%) ([2]; Neck of femur, 72 W, history of Calcitriol): −3.53%
Percentage change in bone density (%) ([2]; Neck of femur, 72 W, history of Calcium L-aspartate): 4.17%
Percentage change in bone density (%) ([2]; Neck of femur, 72 W, history of Calcium lactate): −2.53%
Percentage change in bone density (%) ([2]; Neck of femur, 72 W, history of Elcatonin): 3.15%
Percentage change in bone density (%) ([2]; Neck of femur, 72 W, history of Menatetrenone): −0.78%
Percentage change in bone density (%) ([2]; Neck of femur, 72 W, history of Raloxifene hydrochloride): −0.51%
Change in bone density (%) ([2]; Neck of femur, 72 W): 2.44%
Percentage change in bone density (%) ([2]; Proximal femur, 24 W, history of Alfacalcidol): 2.77%
Percentage change in bone density (%) ([2]; Proximal femur, 24 W, history of Calcitriol): −1.40%
Percentage change in bone density (%) ([2]; Proximal femur, 24 W, history of Calcium L-aspartate): 1.76%
Percentage change in bone density (%) ([2]; Proximal femur, 24 W, history of Calcium lactate): 1.78%
Percentage change in bone density (%) ([2]; Proximal femur, 24 W, history of Elcatonin): 3.86%
Percentage change in bone density (%) ([2]; Proximal femur, 24 W, history of Menatetrenone): 0.60%
Percentage change in bone density (%) ([2]; Proximal femur, 24 W, history of Raloxifene hydrochloride): 2.44%
Change in bone density (%) ([2]; Proximal femur, 24 W): 2.46%
Percentage change in bone density (%) ([2]; Proximal femur, 48 W, history of Alfacalcidol): 2.31%
Percentage change in bone density (%) ([2]; Proximal femur, 48 W, history of Calcitriol): −1.05%
Percentage change in bone density (%) ([2]; Proximal femur, 48 W, history of Calcium L-aspartate): 2.28%
Percentage change in bone density (%) ([2]; Proximal femur, 48 W, history of Calcium lactate): −1.68%
Percentage change in bone density (%) ([2]; Proximal femur, 48 W, history of Elcatonin): 3.44%
Percentage change in bone density (%) ([2]; Proximal femur, 48 W, history of Menatetrenone): −0.56%
Percentage change in bone density (%) ([2]; Proximal femur, 48 W, history of Raloxifene hydrochloride): 2.26%
Change in bone density (%) ([2]; Proximal femur, 48 W): 3.39%
Percentage change in bone density (%) ([2]; Proximal femur, 72 W, history of Alfacalcidol): 2.31%
Percentage change in bone density (%) ([2]; Proximal femur, 72 W, history of Calcitriol): −0.04%
Percentage change in bone density (%) ([2]; Proximal femur, 72 W, history of Calcium L-aspartate): 3.69%
Percentage change in bone density (%) ([2]; Proximal femur, 72 W, history of Calcium lactate): −3.20%
Percentage change in bone density (%) ([2]; Proximal femur, 72 W, history of Elcatonin): 4.41%
Percentage change in bone density (%) ([2]; Proximal femur, 72 W, history of Menatetrenone): −1.40%
Percentage change in bone density (%) ([2]; Proximal femur, 72 W, history of Raloxifene hydrochloride): 3.03%
Change in bone density (%) ([2]; Proximal femur, 72 W): 3.06%
Side effects: No, No. of cases [3]: 27
Side effects: Yes, No. of cases [3]: 22
